The assay addresses Galectin-3 (Homo sapiens, UniProt P17931). Briefly: Spectrophotometric Assay. As to the method: The inhibitory activity of compounds is determined in competitive binding assays. […] Finally, 25 μL/well of ABTS substrate is added.

This is an account of results in BindingDB's records for patent US20240124427 (Idorsia Pharmaceuticals, 2024).

Sequence of Galectin-3 (P17931 whole entry): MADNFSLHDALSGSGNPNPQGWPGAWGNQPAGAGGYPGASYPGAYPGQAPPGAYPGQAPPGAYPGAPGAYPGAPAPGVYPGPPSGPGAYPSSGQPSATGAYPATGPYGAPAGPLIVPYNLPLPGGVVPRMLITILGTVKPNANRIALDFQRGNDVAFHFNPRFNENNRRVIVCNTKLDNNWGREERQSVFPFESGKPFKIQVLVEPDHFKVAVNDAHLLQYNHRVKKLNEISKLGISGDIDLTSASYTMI

In turn, `CO[C@@H]1[C@@H](n2cc(-c3cc(F)c(Cl)c(F)c3)nn2)[C@@H](O)[C@@H](CO)O[C@H]1C(=O)N(c1cc(Br)cc(C#N)c1)[C@@H]1COC[C@H]1O` [US20240124427, Example 53] returned an IC50 of 46 nM.

Turning to `CO[C@@H]1[C@@H](n2cc(-c3cc(F)c(F)c(F)c3)nn2)[C@@H](O)[C@@H](CO)O[C@H]1C(=O)N(c1cc(Br)cc(C#N)c1)[C@@H]1COC[C@H]1O` [US20240124427, Example 36], the IC50 was 67 nM.

For `CO[C@@H]1[C@@H](n2cc(-c3cc(F)c(F)c(F)c3)nn2)[C@@H](O)[C@@H](CO)O[C@H]1C(=O)N(c1cc(Br)cc(C#N)c1)[C@H]1COC[C@@H]1O` [US20240124427, Example 7], half-maximal inhibition (IC50) was put at 83 nM.

Take `CO[C@@H]1[C@@H](n2cc(-c3cc(F)c(Cl)c(F)c3)nn2)[C@@H](O)[C@@H](CO)O[C@H]1C(=O)N(c1cc(Br)cc(C#N)c1)[C@H]1COC[C@@H]1O` [US20240124427, Example 24]: the IC50 worked out at 73 nM.

As for `CO[C@@H]1[C@@H](n2cc(-c3ccc(Br)c(F)c3F)nn2)[C@@H](O)[C@@H](CO)O[C@H]1C(=O)N(c1cc(Cl)cc(Cl)c1)[C@H]1CNC[C@@H]1O` [US20240124427, Example 62], half-maximal inhibition (IC50) was put at 12 nM.

`CO[C@@H]1[C@@H](n2cc(-c3cc(F)c(F)c(F)c3)nn2)[C@@H](O)[C@@H](CO)O[C@H]1C(=O)N(c1cc(Cl)cc(Cl)c1)[C@H]1COC[C@@H]1O` [US20240124427, Example 4] showed an IC50 of 72 nM.

One may read the IC50 as the concentration that gives 50% inhibition. A lower IC50 goes with inhibition by little substance.
